Test results published in US20060058345A1, “Use of papaverine-like vasodilator and pharmaceutical composition” (Ursapharm Arzneimittel GmbH & Co KG, priority 2002, published 2006).
Where “and” joins values, the source holds several entries; their conditions need not be identical. Equal values may be shown once. Where a name gives a salt, the structure may show the parent alone.

Tests used:
[1] = system: albino rabbits; test: Compatibility study, topical application to the rabbit eye over 28 days (EU Directive 92/69/EEC, method B.5); assay type: in vivo; details: 50 μl aqueous solution pH 3.0-3.5, right eye, twelve albino rabbits
Protocol: In a compatibility study 50 μl of a moxaverine hydrochloride-bearing aqueous solution with a pH of 3.0-3.5 was applied to the right eye of twelve albino rabbits in each case over a period of 28 days with four applications per working day and two applications per weekend day in a single dose. The left eye served in each case as a control. Evaluation of the eye reaction was effected in accordance with the Table of EU Directive 92/69/EEC, Appendix, method B.5.

[2] = Absorption of 14C-marked moxaverine into eye tissues and plasma after ocular or systemic application; details: for Amount of active substance in the moist tissue: single experiments
[3] = ocular application, after 30 minutes, Aqueous humor
[4] = ocular application, after 30 minutes, Lens
[5] = ocular application, after 30 minutes, Plasma
[6] = ocular application, after 120 minutes, Retina
[7] = systemic application (intravenous), after 30 minutes, Aqueous humor
[8] = systemic application (intravenous), after 30 minutes, Iris/ciliary process
[9] = systemic application (intravenous), after 30 minutes, Lens
[10] = systemic application (intravenous), after 30 minutes, Plasma
[11] = systemic application (intravenous), after 30 minutes, Retina
[12] = systemic application (intravenous), after 30 minutes, Vitreous humor
[13] = systemic application (intravenous), after 120 minutes, Aqueous humor
[14] = systemic application (intravenous), after 120 minutes, Conjunctiva
[15] = systemic application (intravenous), after 120 minutes, Iris/ciliary process
[16] = systemic application (intravenous), after 120 minutes, Lens
[17] = systemic application (intravenous), after 120 minutes, Plasma
[18] = systemic application (intravenous), after 120 minutes, Retina
[19] = systemic application (intravenous), after 120 minutes, Sclera
[20] = systemic application (intravenous), after 120 minutes, Vitreous humor

## CCc1cc2cc(OC)c(OC)cc2c(Cc2ccccc2)n1 [moxaverine hydrochloride]
[1]
  Eye reaction: changes to the iris, clouding of the cornea: No changes to the iris or clouding of the cornea were observed
  Eye reaction: swelling of the lids, reddening of the conjunctiva: No rabbit exhibited swelling of the lids or any reddening of the conjunctiva

## CCc1cc2cc(OC)c(OC)cc2c(Cc2ccccc2)n1 [moxaverine]
[2]; 30 minutes
  Factor by which concentration in the iris and the ciliary process is less with systemic than with topical application: ~6
[2]; 120 minutes
  Factor by which concentration in the iris and the ciliary process is less with systemic than with topical application: ~18
[2]; after 30 minutes
  Concentration in the retina, systemic compared to topical administration: slightly above
[2]; ocular application
  Concentration in the conjunctiva and the cornea after 120 minutes compared to 30 minutes: decreased
  Concentration in the iris and the ciliary process after 120 minutes compared to 30 minutes: almost doubled
  Increase of concentration in the retina after 120 minutes compared to 30 minutes: about 50%
[2]; [3]
  Amount of active substance in the moist tissue, Mean value: 1.9529E−07 mg of moxaverine/g of moist tissue
  Amount of active substance in the moist tissue: 1.4923E−07 mg of moxaverine/g of moist tissue and 2.6321E−07 mg of moxaverine/g of moist tissue and 1.7533E−07 mg of moxaverine/g of moist tissue
[2]; ocular application, after 30 minutes, Conjunctiva
  Amount of active substance in the moist tissue, Mean value: 6.1602E−04 mg of moxaverine/g of moist tissue
[2]; ocular application, after 30 minutes, Cornea
  Amount of active substance in the moist tissue, Mean value: 1.8538E−03 mg of moxaverine/g of moist tissue
[2]; ocular application, after 30 minutes, Iris/ciliary process
  Amount of active substance in the moist tissue, Mean value: 1.5028E−03 mg of moxaverine/g of moist tissue
[2]; [4]
  Amount of active substance in the moist tissue, Mean value: 4.9582E−05 mg of moxaverine/g of moist tissue
  Amount of active substance in the moist tissue: 4.6171E−05 mg of moxaverine/g of moist tissue and 6.1860E−05 mg of moxaverine/g of moist tissue and 4.0715E−05 mg of moxaverine/g of moist tissue
[2]; [5]
  Amount of active substance in the moist tissue, Mean value: 2.0234E−05 mg of moxaverine/g of moist tissue
  Amount of active substance in the moist tissue: 2.3741E−05 mg of moxaverine/g of moist tissue and 1.8259E−05 mg of moxaverine/g of moist tissue and 1.8702E−05 mg of moxaverine/g of moist tissue
[2]; ocular application, after 30 minutes, Retina
  Amount of active substance in the moist tissue, Mean value: 1.0031E−04 mg of moxaverine/g of moist tissue
[2]; ocular application, after 30 minutes, Sclera
  Amount of active substance in the moist tissue, Mean value: 1.0012E−04 mg of moxaverine/g of moist tissue
[2]; ocular application, after 30 minutes, Vitreous humor
  Amount of active substance in the moist tissue, Mean value: 1.1544E−07 mg of moxaverine/g of moist tissue
[2]; ocular application, after 120 minutes, Aqueous humor
  Amount of active substance in the moist tissue, Mean value: 9.3417E−08 mg of moxaverine/g of moist tissue
[2]; ocular application, after 120 minutes, Conjunctiva
  Amount of active substance in the moist tissue, Mean value: 3.7275E−04 mg of moxaverine/g of moist tissue
[2]; ocular application, after 120 minutes, Cornea
  Amount of active substance in the moist tissue, Mean value: 1.1057E−03 mg of moxaverine/g of moist tissue
[2]; ocular application, after 120 minutes, Iris/ciliary process
  Amount of active substance in the moist tissue, Mean value: 2.9849E−03 mg of moxaverine/g of moist tissue
[2]; ocular application, after 120 minutes, Lens
  Amount of active substance in the moist tissue, Mean value: 5.6780E−05 mg of moxaverine/g of moist tissue
[2]; ocular application, after 120 minutes, Plasma
  Amount of active substance in the moist tissue, Mean value: 1.2891E−05 mg of moxaverine/g of moist tissue
[2]; [6]
  Amount of active substance in the moist tissue, Mean value: 1.4397E−04 mg of moxaverine/g of moist tissue
  Amount of active substance in the moist tissue: 1.8933E−04 mg of moxaverine/g of moist tissue and 1.4755E−04 mg of moxaverine/g of moist tissue and 9.5039E−05 mg of moxaverine/g of moist tissue
[2]; ocular application, after 120 minutes, Sclera
  Amount of active substance in the moist tissue, Mean value: 1.0330E−04 mg of moxaverine/g of moist tissue
[2]; ocular application, after 120 minutes, Vitreous humor
  Amount of active substance in the moist tissue, Mean value: 9.6118E−09 mg of moxaverine/g of moist tissue
[2]; same application amount
  Absorption and biological availability in the eye, topical compared to systemic application: better absorbed by the eye with topical application and exhibits a markedly longer biological availability in the eye
[2]; systemic application
  Concentration in the iris and the ciliary process at 120 minutes as share of the concentration after 30 minutes: about 63%
  Factor of decrease of concentration in the retina from 30 to 120 minutes: 1.6
[2]; [7]
  Amount of active substance in the moist tissue, Mean value: 2.2632E−09 mg of moxaverine/g of moist tissue
  Amount of active substance in the moist tissue: 2.0291E−09 mg of moxaverine/g of moist tissue and 2.4973E−09 mg of moxaverine/g of moist tissue
[2]; systemic application (intravenous), after 30 minutes, Conjunctiva
  Amount of active substance in the moist tissue, Mean value: 2.4278E−05 mg of moxaverine/g of moist tissue
[2]; systemic application (intravenous), after 30 minutes, Cornea
  Amount of active substance in the moist tissue, Mean value: 8.1549E−06 mg of moxaverine/g of moist tissue
[2]; [8]
  Amount of active substance in the moist tissue, Mean value: 2.5186E−04 mg of moxaverine/g of moist tissue
  Amount of active substance in the moist tissue: 2.2898E−04 mg of moxaverine/g of moist tissue and 2.7473E−04 mg of moxaverine/g of moist tissue
[2]; [9]
  Amount of active substance in the moist tissue, Mean value: 1.2813E−06 mg of moxaverine/g of moist tissue
  Amount of active substance in the moist tissue: 9.5659E−07 mg of moxaverine/g of moist tissue and 1.6061E−06 mg of moxaverine/g of moist tissue
[2]; [10]
  Amount of active substance in the moist tissue, Mean value: 3.4421E−05 mg of moxaverine/g of moist tissue
  Amount of active substance in the moist tissue: 2.8375E−05 mg of moxaverine/g of moist tissue and 4.9032E−05 mg of moxaverine/g of moist tissue and 2.5855E−05 mg of moxaverine/g of moist tissue
[2]; [11]
  Amount of active substance in the moist tissue, Mean value: 1.3046E−04 mg of moxaverine/g of moist tissue
  Amount of active substance in the moist tissue: 1.0666E−04 mg of moxaverine/g of moist tissue and 1.5425E−04 mg of moxaverine/g of moist tissue
[2]; systemic application (intravenous), after 30 minutes, Sclera
  Amount of active substance in the moist tissue, Mean value: 3.3698E−05 mg of moxaverine/g of moist tissue
[2]; [12]
  Amount of active substance in the moist tissue, Mean value: 2.0811E−09 mg of moxaverine/g of moist tissue
  Amount of active substance in the moist tissue: 2.6534E−09 mg of moxaverine/g of moist tissue and 1.5088E−09 mg of moxaverine/g of moist tissue
[2]; [13]
  Amount of active substance in the moist tissue, Mean value: 1.9944E−09 mg of moxaverine/g of moist tissue
  Amount of active substance in the moist tissue: 2.3412E−09 mg of moxaverine/g of moist tissue and 1.8210E−09 mg of moxaverine/g of moist tissue
[2]; [14]
  Amount of active substance in the moist tissue, Mean value: 2.2936E−05 mg of moxaverine/g of moist tissue
  Amount of active substance in the moist tissue: 2.7539E−05 mg of moxaverine/g of moist tissue and 1.5261E−05 mg of moxaverine/g of moist tissue and 2.6009E−05 mg of moxaverine/g of moist tissue
[2]; systemic application (intravenous), after 120 minutes, Cornea
  Amount of active substance in the moist tissue, Mean value: 7.6083E−06 mg of moxaverine/g of moist tissue
[2]; [15]
  Amount of active substance in the moist tissue, Mean value: 1.5907E−04 mg of moxaverine/g of moist tissue
  Amount of active substance in the moist tissue: 1.2211E−04 mg of moxaverine/g of moist tissue and 1.6708E−04 mg of moxaverine/g of moist tissue and 1.8802E−04 mg of moxaverine/g of moist tissue
[2]; [16]
  Amount of active substance in the moist tissue, Mean value: 1.5477E−06 mg of moxaverine/g of moist tissue
  Amount of active substance in the moist tissue: 1.3706E−06 mg of moxaverine/g of moist tissue and 2.0870E−06 mg of moxaverine/g of moist tissue and 1.1854E−06 mg of moxaverine/g of moist tissue
[2]; [17]
  Amount of active substance in the moist tissue, Mean value: 2.2620E−05 mg of moxaverine/g of moist tissue
  Amount of active substance in the moist tissue: 2.4420E−05 mg of moxaverine/g of moist tissue and 2.1190E−05 mg of moxaverine/g of moist tissue and 2.2250E−05 mg of moxaverine/g of moist tissue
[2]; [18]
  Amount of active substance in the moist tissue, Mean value: 7.7330E−05 mg of moxaverine/g of moist tissue
  Amount of active substance in the moist tissue: 9.5067E−05 mg of moxaverine/g of moist tissue and 8.3068E−05 mg of moxaverine/g of moist tissue and 5.3855E−05 mg of moxaverine/g of moist tissue
[2]; [19]
  Amount of active substance in the moist tissue, Mean value: 1.3993E−05 mg of moxaverine/g of moist tissue
  Amount of active substance in the moist tissue: 1.4230E−05 mg of moxaverine/g of moist tissue and 1.1476E−05 mg of moxaverine/g of moist tissue and 1.6272E−05 mg of moxaverine/g of moist tissue
[2]; [20]
  Amount of active substance in the moist tissue, Mean value: 1.2851E−09 mg of moxaverine/g of moist tissue
  Amount of active substance in the moist tissue: 1.5608E−09 mg of moxaverine/g of moist tissue and 9.6772E−10 mg of moxaverine/g of moist tissue and 1.3267E−09 mg of moxaverine/g of moist tissue
[2]; topical application
  Absorption by the eye after topical application to the surface: very well absorbed by the eye
  Factor of increase of concentration in the iris and the ciliary process from 30 minutes to 120 minutes: ~2
  Factor of increase of concentration in the retina from 30 to 120 minutes: 1.4
